The results in this text go back to PubChem BioAssay (NCI).

Experiment in all cases: NCI tumour cell line growth inhibition, 48 h
The subject of experiment [1] is HCT-116 colon.
Experiment [2] relates to HOP-62 NSCLC.
Experiment [3] concerns EKVX NSCLC.
Experiment [4] concerns HS 578T breast.
Experiment [5] relates to SK-MEL-28 melanoma.
Experiment [6] has as its system CAKI-1 renal.
Experiment [7] concerns HCT-15 colon.
The test system of experiment [8] is SK-MEL-2 melanoma.
Experiment [9] has as its system SNB-75 CNS.
In experiment [10] the test system is TK-10 renal.

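Values below derive from 48-hour exposures of cells grown in 96-well plates, with endpoints linearly interpolated between the two concentrations bracketing the appropriate inhibition level. TGI is the concentration that stops growth completely.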 Where only a bound is given, the exact number is not on record here.

As to `Cc1c(CN2CCN(C)CC2)c(CN2CCN(C)CC2)c(C)n1-c1ccc(Cl)cc1`, the TGI is greater than 100 µM in [1]; greater than 100 µM in [2]; greater than 100 µM in experiment [3]; 70.6 µM in experiment [4]; 39.2 µM in experiment [5]; 59.9 µM in experiment [6]. Moreover, the TGI in experiment [7] was greater than 100 µM; in experiment [8], 46.2 µM; in experiment [9] it was 88.4 µM; in [10], 47.8 µM.
Regarding `COc1ccc2nc(/C(N)=C\C#N)ccc2c1`, the TGI in experiment [1], in [2], in experiment [3], in experiment [4], in [5] and in experiment [6] was greater than 100 µM each time. The TGI in [7], in [8], in experiment [9] and in experiment [10] was greater than 100 µM in each case.
Turning to `O=[N+]([O-])c1ccc(NC(=S)N=Nc2c(O)[nH]c3ccc([N+](=O)[O-])cc23)cc1`, the TGI in experiment [1] is 46.3 µM; in experiment [2], 50.4 µM; in [3], 63.6 µM; in experiment [4] it was greater than 100 µM; in experiment [5], 80.7 µM; in experiment [6], 43.2 µM. Further, the TGI is 46.8 µM in experiment [7], 35.8 µM in [8], 42.8 µM in experiment [9] and 56.7 µM in experiment [10].
Take `N#C/C(=C/n1c(=S)[nH]c2ccc([N+](=O)[O-])cc21)C(N)=O`: the TGI in experiment [1], in [2], in experiment [3], in experiment [4], in experiment [5] and in experiment [6] was greater than 100 µM in each case. Besides, the TGI in experiment [7], in experiment [8], in [9] and in experiment [10] was greater than 100 µM throughout.
As to `C/C(Cl)=N\OC(=O)Nc1ccc(C)cc1`, the TGI in [1] was 38.6 µM; in experiment [2], greater than 100 µM; in experiment [3] it was 32.3 µM; in [4], 83 µM; in [5], 28.1 µM; in experiment [6] it was 30.4 µM. In addition, the TGI in experiment [7] stood at 31.5 µM; in experiment [8], 33.1 µM; in [9] it was 26.3 µM; in experiment [10], 28.5 µM.
For `Cc1ccc2c(c1)-c1c(C#N)c(N)nc(-c3ccc(Cl)cc3)c1CCS2(=O)=O`, the TGI in experiment [1] is greater than 100 µM; in [2], greater than 100 µM; in [3] it was greater than 100 µM; in experiment [4] it was 64.6 µM; in experiment [5] it was greater than 100 µM; in [6], greater than 100 µM. Also, the TGI in experiment [7] was greater than 100 µM; in experiment [8] it was greater than 100 µM; in experiment [9] it was 14.3 µM; in [10], greater than 100 µM.
Regarding `C=C(C)OCOCCOC`, the TGI in [1], in experiment [2], in [3], in experiment [4], in experiment [5] and in experiment [6] was greater than 100 µM in each case. For the same compound, the TGI in experiment [7], in experiment [8], in experiment [9] and in experiment [10] was greater than 100 µM throughout.
Regarding `C1=C2C3=[N+](CCCCC3)CC2Cc2ccsc21` (stereo not given), the TGI in [1], in experiment [2], in [3], in [4], in experiment [5] and in experiment [6] was greater than 100 µM each time. For the same compound, the TGI in experiment [7], in [8], in experiment [9] and in experiment [10] was greater than 100 µM each time.
With `C[C@]12CCC(=O)[C@@H](CCC3=CC(=O)C=CC3=O)[C@@H]1CCC2=O`, the TGI in [1] is greater than 50.5 µM; in [2], greater than 100 µM; in experiment [3] it was 47.5 µM; in experiment [4], 43.6 µM; in experiment [5], 37.1 µM; in experiment [6], 27.7 µM. Moreover, the TGI in experiment [7] was greater than 31.6 µM; in experiment [8], 27.1 µM; in experiment [9], 25.8 µM; in [10], 30.4 µM.
Consider `CCC(CO)Nc1nc(NCc2ccccc2)c2ncn(C(C)C)c2n1` (stereo not given), for which the TGI was greater than 90.2 µM in experiment [1]; 33.9 µM in [2]; 49.5 µM in experiment [3]; 27.3 µM in [4]; 34.4 µM in experiment [5]; greater than 82.5 µM in experiment [6]. The TGI in experiment [7] is greater than 100 µM; in experiment [8] it was 38.9 µM; in [9], 26.8 µM; in experiment [10] it was greater than 84.6 µM.
For the compound `CCCCSc1nsc(N(C(=O)c2ccccc2)C(=O)c2ccccc2)n1`, the TGI in experiment [1] is 92.6 µM; in experiment [2] it was greater than 100 µM; in [3], 77.4 µM; in experiment [4], 89.7 µM; in experiment [5] it was greater than 100 µM; in [6], greater than 100 µM. For the same compound, the TGI was greater than 100 µM in [7], 71.1 µM in [8], 73.8 µM in experiment [9] and greater than 100 µM in experiment [10].
